Laboratory results reported in ChEMBL document CHEMBL3885861, “Open TG-GATES”.

Species on record: Rattus norvegicus
Assay: Open TG-GATES - Regimen: Single
Assay type: toxicity, organism-based, Sprague-Dawley
Set-up: regimen Single, gender Male, age 6 weeks
Conditions: in vivo, ip, 0.3 mg/kg, route intraperitoneal injection, dose 300 ug/Kg, dose level High; for APTT / Bas / Eos / Fbg / Hb / Ht / Lym / MCH / MCHC / MCV / Mono / Neu / PT / Plat / RBC / Ret / WBC: tissue Blood; for KIDNEY_L / KIDNEY_R / KIDNEY_TOTAL: tissue Kidney; for LIVER: tissue Liver; for A/G / ALP / ALT / AST / BUN / CRE / Ca / Cl / DBIL / GLC / IP / K / LDH / Na / PL / RALB / TBIL / TC / TG / TP / gamma-GTP: tissue Plasma

CC(=O)N[C@H]1[C@@H](O[C@@H]2O[C@H](CC(O)[C@H]3O[C@@H](n4ccc(=O)[nH]c4=O)[C@H](O)[C@@H]3O)[C@H](O)[C@H](O)[C@H]2NC(=O)/C=C/CC(C)C)O[C@H](CO)[C@@H](N)[C@@H]1O (some centres not stated) [TUNICAMYCIN]
TERMINAL_BW (3 h): 222.1 g
APTT (3 h): 21.6 s
Bas (3 h): 0%
Eos (3 h): 0.4%
Fbg (3 h): 288.4 mg/dL
Hb (3 h): 13.1 g/dL
Ht (3 h): 40.3%
Lym (3 h): 80.8%
MCH (3 h): 20.8 pg
MCHC (3 h): 32.5%
MCV (3 h): 64 fL
Mono (3 h): 3%
Neu (3 h): 14.6%
PT (3 h): 15.5 s
Plat (3 h): 108.9 x10_4/uL
RBC (3 h): 630.4 x10_4/ul
Ret (3 h): 8%
WBC (3 h): 89.8 x10_2/uL
KIDNEY_L (3 h): 1 g
KIDNEY_R (3 h): 1 g
KIDNEY_TOTAL (3 h): 2 g
LIVER (3 h): 10.1 g
A/G (3 h): 1.2
ALP (3 h): 1378 IU/L
ALT (3 h): 38.4 IU/L
AST (3 h): 70.6 IU/L
BUN (3 h): 13.6 mg/dL
CRE (3 h): 0.1 mg/dL
Ca (3 h): 10.9 mg/dL
Cl (3 h): 106.6 meq/L
DBIL (3 h): 0 mg/dL
GLC (3 h): 167.8 mg/dL
IP (3 h): 8.4 mg/dL
K (3 h): 4.4 meq/L
LDH (3 h): 154 IU/L
Na (3 h): 140.4 meq/L
PL (3 h): 127.4 mg/dL
RALB (3 h): 2.9 g/dL
TBIL (3 h): 0.016 mg/dL
TC (3 h): 68.6 mg/dL
TG (3 h): 71 mg/dL
TP (3 h): 5.3 g/dL
gamma-GTP (3 h): 1.4 IU/L
TERMINAL_BW (6 h): 219.8 g
APTT (6 h): 21.5 s
Bas (6 h): 0%
Eos (6 h): 0.8%
Fbg (6 h): 309.6 mg/dL
Hb (6 h): 13.3 g/dL
Ht (6 h): 41%
Lym (6 h): 70.8%
MCH (6 h): 20.8 pg
MCHC (6 h): 32.5%
MCV (6 h): 64 fL
Mono (6 h): 3.2%
Neu (6 h): 24.2%
PT (6 h): 15.9 s
Plat (6 h): 118.2 x10_4/uL
RBC (6 h): 640.4 x10_4/ul
Ret (6 h): 7.6%
WBC (6 h): 84.7 x10_2/uL
KIDNEY_L (6 h): 1 g
KIDNEY_R (6 h): 1 g
KIDNEY_TOTAL (6 h): 1.9 g
LIVER (6 h): 9.1 g
A/G (6 h): 1.2
ALP (6 h): 1426.6 IU/L
ALT (6 h): 41.4 IU/L
AST (6 h): 73.6 IU/L
BUN (6 h): 12.6 mg/dL
CRE (6 h): 0.1 mg/dL
Ca (6 h): 10.7 mg/dL
Cl (6 h): 107 meq/L
DBIL (6 h): 0.002 mg/dL
GLC (6 h): 173.8 mg/dL
IP (6 h): 9.1 mg/dL
K (6 h): 4.5 meq/L
LDH (6 h): 175.8 IU/L
Na (6 h): 141 meq/L
PL (6 h): 125 mg/dL
RALB (6 h): 2.9 g/dL
TBIL (6 h): 0.012 mg/dL
TC (6 h): 71 mg/dL
TG (6 h): 50.4 mg/dL
TP (6 h): 5.4 g/dL
gamma-GTP (6 h): 1.2 IU/L
TERMINAL_BW (9 h): 212.4 g
APTT (9 h): 20.8 s
Bas (9 h): 0%
Eos (9 h): 0.4%
Fbg (9 h): 307 mg/dL
Hb (9 h): 13.5 g/dL
Ht (9 h): 41.4%
Lym (9 h): 73.8%
MCH (9 h): 20.9 pg
MCHC (9 h): 32.7%
MCV (9 h): 63.7 fL
Mono (9 h): 2.8%
Neu (9 h): 21.4%
PT (9 h): 16.4 s
Plat (9 h): 121.3 x10_4/uL
RBC (9 h): 649.2 x10_4/ul
Ret (9 h): 7.1%
WBC (9 h): 84 x10_2/uL
KIDNEY_L (9 h): 1 g
KIDNEY_R (9 h): 1 g
KIDNEY_TOTAL (9 h): 1.9 g
LIVER (9 h): 8.8 g
A/G (9 h): 1.2
ALP (9 h): 1397.6 IU/L
ALT (9 h): 43.4 IU/L
AST (9 h): 86.6 IU/L
BUN (9 h): 17.4 mg/dL
CRE (9 h): 0.1 mg/dL
Ca (9 h): 10.5 mg/dL
Cl (9 h): 107.4 meq/L
DBIL (9 h): 0 mg/dL
GLC (9 h): 164.8 mg/dL
IP (9 h): 9.4 mg/dL
K (9 h): 4.4 meq/L
LDH (9 h): 185.6 IU/L
Na (9 h): 140.8 meq/L
PL (9 h): 114.8 mg/dL
RALB (9 h): 3 g/dL
TBIL (9 h): 0.018 mg/dL
TC (9 h): 68.2 mg/dL
TG (9 h): 22.2 mg/dL
TP (9 h): 5.4 g/dL
gamma-GTP (9 h): 1 IU/L
TERMINAL_BW (24 h): 228.7 g
APTT (24 h): 23.4 s
Bas (24 h): 0%
Eos (24 h): 1.2%
Fbg (24 h): 288 mg/dL
Hb (24 h): 13.2 g/dL
Ht (24 h): 41%
Lym (24 h): 76.2%
MCH (24 h): 20.1 pg
MCHC (24 h): 32.2%
MCV (24 h): 62.4 fL
Mono (24 h): 3.6%
Neu (24 h): 18.4%
PT (24 h): 16.5 s
Plat (24 h): 122.4 x10_4/uL
RBC (24 h): 658.2 x10_4/ul
Ret (24 h): 7.2%
WBC (24 h): 97.7 x10_2/uL
KIDNEY_L (24 h): 1 g
KIDNEY_R (24 h): 1 g
KIDNEY_TOTAL (24 h): 1.9 g
LIVER (24 h): 10.8 g
A/G (24 h): 1.3
ALP (24 h): 1621.2 IU/L
ALT (24 h): 55 IU/L
AST (24 h): 86.6 IU/L
BUN (24 h): 14.8 mg/dL
CRE (24 h): 0.2 mg/dL
Ca (24 h): 10.4 mg/dL
Cl (24 h): 106.4 meq/L
DBIL (24 h): 0 mg/dL
GLC (24 h): 174.4 mg/dL
IP (24 h): 7.5 mg/dL
K (24 h): 4.5 meq/L
LDH (24 h): 181.4 IU/L
Na (24 h): 141.2 meq/L
PL (24 h): 120.8 mg/dL
RALB (24 h): 3 g/dL
TBIL (24 h): 0.012 mg/dL
TC (24 h): 58.4 mg/dL
TG (24 h): 70.8 mg/dL
TP (24 h): 5.3 g/dL
gamma-GTP (24 h): 1.6 IU/L
